Data from US20120071496A1, “Aminopyrimidinamides As Pest Control Agents” (Bayer CropScience AG, priority 2009, published 2012).

Test: logP (HCOOH)
Assay type: physicochemical
Conditions: HCOOH (formic acid); Table 2

| chromatographic logP | SMILES |
| --- | --- |
| 1.6 | CCc1ncccc1C(=O)Nc1c(NC2CC2)ncnc1-c1ccc(Cl)cc1Cl [1-126, N-[4-Cyclopropylamino-6-(2,4-dichlorophenyl)pyrimidin-5-yl]-2-ethylnicotinamide] |

Same assay, conditions: HCOOH (formic acid); Table 6

| chromatographic logP | SMILES |
| --- | --- |
| 2.12 | CCc1ncccc1C(=O)Nc1c(Cl)ncnc1Nc1ccc(C(F)(F)F)cc1 [5-5, N-(4-Chloro-6-{[4-(trifluoromethyl)phenyl]amino}pyrimidin-5-yl)-2-ethylnicotinamide] |

Same assay, conditions: Table 2

| SMILES | logP (HCOOH) |
| --- | --- |
| CCc1ncccc1C(=O)Nc1c(NC(C)(C)C)ncnc1-c1ccc(C(F)(F)F)cc1 [1-137] | 2.34 |
| O=C(Nc1c(NC2CC2)ncnc1-c1ccc(F)cc1)c1cccnc1C(F)C(F)(F)F (stereo not shown) [1-308] | 1.83 |
| CCc1ncccc1C(=O)Nc1c(NC2CC2)ncnc1-c1ccccc1Cl [1-140] | 1.07 |
| CCc1ncccc1C(=O)Nc1c(NC(C)(C)C)ncnc1-c1ccc(C#N)cc1 [1-136] | 1.81 |
| CCc1ncccc1C(=O)Nc1c(NC(C)(C)C)ncnc1-c1ccc(Cl)cc1Cl [1-142] | 1.89 |
| CCc1ncccc1C(=O)Nc1c(NC2CC2C)ncnc1-c1ccc(Cl)cc1F (stereo not shown) [1-230] | 1.72 |
| O=C(Nc1c(NC2CC2)ncnc1-c1ccc(F)cc1)c1cccnc1OCC(F)(F)F [1-167] | 2.12 |
| CCc1ncccc1C(=O)Nc1c(NC2CCC2)ncnc1-c1ccc(F)cc1 [1-224] | 1.36 |
| CCc1ncccc1C(=O)Nc1c(NC2CC2)ncnc1-c1ccc(C(F)(F)F)cc1C [1-189] | 1.77 |
| CCc1ncccc1C(=O)Nc1c(NC2CC2)ncnc1-c1ccc(C#N)cc1 [1-133] | 1.10 |
| CCc1ncccc1C(=O)Nc1c(NC(C)C2CC2)ncnc1-c1ccc(OC(F)(F)F)cc1 (stereo not shown) [1-146] | 2.18 |
| Cc1ncccc1C(=O)Nc1c(NC2CC2)ncnc1-c1cc(F)c(C(F)(F)F)c(F)c1 [1-122] | 1.95 |
| O=C(Nc1c(NC2CC2)ncnc1-c1ccc(OC(F)(F)F)cc1)c1ccccc1Cl [1-113] | 2.41 |
| O=C(Nc1c(NC2CC2)ncnc1-c1ccc(Cl)cc1)c1cccnc1OCC(F)(F)F [1-166] | 2.48 |
| Cc1ccccc1C(=O)Nc1c(NC2CC2)ncnc1-c1ccc(OC(F)(F)F)cc1 [1-72] | 2.35 |
| CCc1ncccc1C(=O)Nc1c(NC(C)C2(Cl)CC2)ncnc1-c1ccc(Cl)cc1 (stereo not shown) [1-149] | 2.26 |
| Cc1nc(C(F)(F)F)ccc1C(=O)Nc1c(NC2CC2)ncnc1-c1ccc(Cl)cc1 [1-199] | 2.35 |
| CCc1ncccc1C(=O)Nc1c(NC2CC2)ncnc1-c1ccccc1C [1-182] | 0.94 |
| CCOc1ncccc1C(=O)Nc1c(NC2CC2)ncnc1-c1ccc(Cl)cc1 [1-158] | 2.54 |
| O=C(Nc1c(NC(C2CC2)C2CC2)ncnc1-c1ccc(OC(F)(F)F)cc1)c1cccnc1Cl [1-111] | 2.65 |
| CC(C)Oc1ncccc1C(=O)Nc1c(NC2CC2)ncnc1-c1ccc(OC(F)(F)F)cc1 [1-165] | 2.32 |
| Cc1ncccc1C(=O)Nc1c(NC2CC2)ncnc1-c1ccc(SC(F)(F)F)cc1 [1-116] | 1.81 |
| COc1ncccc1C(=O)Nc1c(NC2CC2)ncnc1-c1ccc(Cl)cc1 [1-154] | 1.83 |
| CCc1ncccc1C(=O)Nc1c(NC(C)C2(Cl)CC2)ncnc1-c1ccc(F)cc1 (stereo not shown) [1-147] | 1.95 |
| O=C(Nc1c(NC2CC2)ncnc1-c1ccc(Cl)cc1)c1cc(Cl)cnc1C1CC1 [1-197] | 2.52 |

| SMILES | logP (HCOOH) |
| --- | --- |
| O=C(Nc1c(NC2CC2)ncnc1-c1ccc(C(F)(F)F)cc1)c1cccnc1C(F)(F)F [1-84] | 2.19 |
| O=C(Nc1c(NC2CC2)ncnc1-c1ccc(F)cc1)c1cccnc1C(=O)NC1CC1 [1-262] | 1.45 |
| CCc1ncccc1C(=O)Nc1c(NC2CC2)nc(C)nc1-c1ccc(OC(F)(F)F)cc1 [1-279] | 1.44 |
| CCc1nc(C(F)(F)F)ccc1C(=O)Nc1c(NC2CC2)ncnc1-c1ccc(F)cc1 [1-196] | 2.43 |
| CCc1ncccc1C(=O)Nc1c(NC2CC2)ncnc1-c1ccc(Cn2cnc(C(F)(F)F)n2)cc1 [1-273] | 1.11 |
| Cc1ncccc1C(=O)Nc1c(NC2CC2)ncnc1-c1ccc(C(F)(F)F)cc1 [1-83] | 1.43 |
| CCOc1ncccc1C(=O)Nc1c(NC2CC2)ncnc1-c1ccc(OC(F)(F)F)cc1 [1-161] | 2.64 |
| N#Cc1ccc(-c2ncnc(NC3CC3)c2NC(=O)c2cccnc2OCC(F)(F)F)cc1 [1-168] | 2.11 |
| CCc1nccc(Cl)c1C(=O)Nc1c(NC2CC2)ncnc1-c1ccc(Cl)cc1 [1-316] | 2.54 |
| CCc1ncccc1C(=O)Nc1c(NC(C)(C)C)ncnc1-c1ccc(Cl)cc1 [1-135] | 1.86 |
| Cc1ncccc1C(=O)Nc1c(NC2CC2)ncnc1-c1ccc(F)cc1 [1-1] | 0.71 |
| O=C(Nc1c(NC2CC2)ncnc1-c1ccc(OC(F)(F)F)cc1)c1cccnc1OCC(F)(F)F [1-169] | 2.84 |
| O=C(Nc1c(NC2CC2)ncnc1-c1ccc(OC(F)(F)F)cc1)c1ccccc1 [1-112] | 2.12 |
| CCc1ncccc1C(=O)Nc1c(NC2CC2)ncnc1-c1ccc(Cl)cc1F [1-187] | 1.46 |
| Cc1ncccc1C(=O)Nc1c(NC(C)C)ncnc1-c1ccc(OC(F)(F)F)cc1 [1-74] | 1.55 |
| CCc1ncccc1C(=O)Nc1c(NC2CC2)nc(C)nc1-c1ccc(F)cc1F [1-278] | 1 |
| O=C(Nc1c(NC2CC2)ncnc1-c1ccc(Cl)cc1)c1cccnc1C(F)(F)F [1-178] | 1.76 |
| O=C(Nc1c(NC2CC2)ncnc1-c1ccc(OC(F)(F)F)cc1)c1cccnc1Cl [1-75] | 1.99 |
| CCc1ncccc1C(=O)Nc1c(NC2CC2)ncnc1-c1ccc(F)cc1C [1-180] | 1.10 |
| CCc1cccc(C)c1C(=O)Nc1c(NC2CC2)ncnc1-c1ccc(F)cc1 [1-320] | 2.39 |
| O=C(Nc1c(NC2CC2)ncnc1-c1ccc(F)cc1)c1cccnc1C(F)(F)F [1-170] | 1.59 |
| CCOc1ncccc1C(=O)Nc1c(NC2CC2)ncnc1-c1ccc(C#N)cc1 [1-160] | 1.80 |
| CCc1ncccc1C(=O)Nc1c(NC(C)C2CC2)ncnc1-c1ccccc1 (stereo not shown) [1-152] | 1.32 |
| O=C(Nc1c(NC2CC2)ncnc1-c1ccc(F)cc1)c1cccnc1Cl [1-129] | 1.27 |
| CCc1ncccc1C(=O)Nc1c(NC2CC2)ncnc1-c1ccccc1 [1-127] | 1.01 |

| SMILES | logP (HCOOH) |
| --- | --- |
| CCOc1ncccc1C(=O)Nc1c(NC2CC2)ncnc1-c1ccc(F)cc1 [1-159] | 1.84 |
| CCc1ncccc1C(=O)Nc1c(NC(C)C2(Cl)CC2)ncnc1-c1ccc(Cl)cc1Cl (stereo not shown) [1-148] | 2.67 |
| O=C(Nc1c(NC2CC2)ncnc1-c1ccccc1)c1cccnc1 [1-128] | 0.63 |
| CCc1ncccc1C(=O)Nc1c(NC2CC2)ncnc1-c1ccc(C#N)cc1C [1-181] | 1.22 |
| O=C(Nc1c(NC2CC2)ncnc1-c1ccc(Cn2cnc(C(F)(F)F)n2)cc1)c1cccnc1C1CC1 [1-287] | 1.45 |
| O=C(Nc1c(NC2CC2)ncnc1-c1ccc(Cl)cc1)c1cccnc1C(F)F [1-179] | 1.58 |
| CCc1ncccc1C(=O)Nc1c(NC2CC2)nc(C)nc1-c1ccc(Cl)cc1Cl [1-277] | 1.34 |
| CCc1ncccc1C(=O)Nc1c(NC2CC2)ncnc1-c1ccc(COc2ccc(C(F)(F)F)cn2)cc1 [1-309] | 1.77 |
| CCc1cccc(Cl)c1C(=O)Nc1c(NC2CC2)ncnc1-c1ccc(C#N)cc1 [1-321] | 2.37 |
| CCc1ncccc1C(=O)Nc1c(NC(C)C2CC2)ncnc1-c1ccc(C#N)cc1 (stereo not shown) [1-145] | 1.67 |
| CCc1ncccc1C(=O)Nc1c(NC(C)(C)C)ncnc1-c1ccc(F)cc1 [1-134] | 1.53 |
| CCc1ncccc1C(=O)Nc1c(NC2CC2)ncnc1-c1ccc(F)cc1 [1-124] | 1.03 |
| Cc1nc(NC2CC2)c(NC(=O)c2cccnc2C)c(-c2ccc(C(F)(F)F)cc2)n1 [1-87] | 1.27 |
| CC(C)Oc1ncccc1C(=O)Nc1c(NC2CC2)ncnc1-c1ccc(C#N)cc1 [1-164] | 2.27 |
| CCc1ncccc1C(=O)Nc1c(NC2CC2)ncnc1-c1ccc(Cl)cc1C [1-188] | 1.40 |
| CCc1nccc(Cl)c1C(=O)Nc1c(NC2CC2)ncnc1-c1ccc(F)cc1 [1-315] | 2.18 |
| CCc1ncccc1C(=O)Nc1c(NC(C)C2(Cl)CC2)ncnc1-c1ccc(C#N)cc1 (stereo not shown) [1-150] | 2.08 |
| O=C(Nc1c(NC2CC2)ncnc1-c1ccc(Cl)cc1)c1cccnc1Cl [1-130] | 1.55 |
| Cc1nc(NC2CC2)c(NC(=O)c2ccccc2Cl)c(-c2ccc(C(F)(F)F)cc2)n1 [1-88] | 1.93 |
| CCc1ncccc1C(=O)Nc1c(NC(C)C2CC2)ncnc1-c1ccc(F)cc1 (stereo not shown) [1-143] | 1.47 |
| CCc1ncccc1C(=O)Nc1c(NC2CC2)nc(C)nc1-c1ccc(F)cc1 [1-276] | 0.88 |
| CC(Nc1ncnc(-c2ccc(OC(F)(F)F)cc2)c1NC(=O)c1cccnc1Cl)C1CC1 (stereo not shown) [1-99] | 2.44 |
| O=C(Nc1c(NC2CC2)ncnc1-c1ccc(Cl)cc1)c1c(F)cccc1Cl [1-263] | 2.20 |
| CCc1ccccc1C(=O)Nc1c(NC2CC2)ncnc1-c1ccc(C(F)(F)F)cc1 [1-86] | 2.68 |
| COc1ncccc1C(=O)Nc1c(NC2CC2)ncnc1-c1ccc(C#N)cc1 [1-156] | 1.59 |

Same assay, conditions: Table 4

| SMILES | logP (HCOOH) |
| --- | --- |
| O=C(Nc1c(Cl)ncnc1NC1CC1)c1cccnc1OCC(F)(F)F [3-4] | 2.25 |
| CCc1ncccc1C(=O)Nc1c(Br)ncnc1NC1CC1 [3-3] | 0.84 |
| CCc1ncccc1C(=O)Nc1c(CC)ncnc1NC1CC1 [3-8] | 1.74 |
| CCc1ncccc1C(=O)Nc1c(Cl)nc(C)nc1NC1CC1 [3-9] | 1.41 |
| CCc1ncccc1C(=O)Nc1c(Cl)ncnc1NC1CC1C (stereo not shown) [3-7] | 1.26 |

Same assay, conditions: table after Table 9

| SMILES | IogP (HCOOH) |
| --- | --- |
| O=C(Nc1c(NC2CC2)ncnc1-c1ccc(F)cc1)c1ccnn1-c1ccc(Cl)cc1 [9-2] | 2.02 |
| O=C(Nc1c(NC2CC2)ncnc1-c1ccc(Cl)cc1)c1ccnn1-c1ccccc1Cl [9-4] | 2.05 |
| O=C(Nc1c(NC2CC2)ncnc1-c1ccc(F)cc1)c1ccnn1-c1ccc(F)cc1 [9-1] | 1.70 |
